# According to paper PMC5454376, “Molecular mechanism of Gαi activation by non-GPCR proteins with a Gα-Binding and Activating motif” (Nature Communications, 2017):
# System: Gαi3 N269D
# Test: Co-immunoprecipitation in HEK293T cells, Gαi3 N269D versus WT
# Assay type: binding
# Conditions: HEK293T lysates, FLAG-tagged Gαi3 N269D vs WT; GST-Ric-8A 1 μg added
# Experimental: HEK293T cells (American Type Culture Collection) were grown at 37 °C in DMEM supplemented with 10% FBS, 100 U ml^−1 penicillin, 100 μg ml^−1 streptomycin, 1% L-glutamine and 5% CO2. DNA plasmids encoding for C-terminally 3xFLAG-tagged Gαi3 (ref. [25]) or an empty plasmid (p3xFLAG-CMV-14) were transfected using the calcium phosphate method in 10 cm dishes. The DNA amount for the Gαi3 N269D plasmid was threefold (12 μg) of that for Gαi3 WT (4 μg) to equalize their expression levels. Cells were collected 48 h after transfection by gently scrapping in PBS, centrifuged and resuspended in 1 ml of lysis buffer (20 mM HEPES (pH 7.2), 5 mM Mg(CH3COO)2, 125 mM K(CH3COO), 0.4% (v:v) Triton X-100, 1 mM DTT, 10 mM β-glycerophosphate and 0.5 mM Na3VO4 supplemented with a protease inhibitor cocktail (Sigma; catalogue #S8830)) and cleared (14,000g for 10 min) before use. Lysates were supplemented with 1 μg of purified GST-Ric-8A (12–491)[22] and 2 μg of mouse anti-FLAG antibody (Sigma F1804), and incubated for 4 h at 4 °C with rotation. BSA-blocked Protein G agarose beads (Thermo-Scientific) were added and tubes incubated for additional 90 min at 4 °C. Beads were washed four times (4.3 mM Na2HPO4, 1.4 mM KH2PO4, pH 7.4, 137 mM NaCl, 2.7 mM KCl, 0.1% (v/v) Tween 20, 10 mm MgCl2, 5 mm EDTA and 1 mm DTT) and immunoprecipitated proteins eluted by boiling in Laemmli sample buffer. […]
substance,measurement,value
"Full-length GIV: full-length GIV from HEK293T cells, 1,870 amino acids",co-immunoprecipitation with nucleotide-free-mimicking mutant compared with WT,as efficiently as with the wild-type (WT) protein
